Laboratory results: ChEMBL document CHEMBL1909046, “DrugMatrix in vitro pharmacology data”

Assays:
[1] = molecular target: T1, Alpha-1D adrenergic receptor (Homo sapiens, UniProt P25100); format: cell membranes, HEK293, Membrane; details: hek293; note: in other assays of this panel Not Active means under 50% inhibition at 10 µM
T1 sequence (P25100 whole entry): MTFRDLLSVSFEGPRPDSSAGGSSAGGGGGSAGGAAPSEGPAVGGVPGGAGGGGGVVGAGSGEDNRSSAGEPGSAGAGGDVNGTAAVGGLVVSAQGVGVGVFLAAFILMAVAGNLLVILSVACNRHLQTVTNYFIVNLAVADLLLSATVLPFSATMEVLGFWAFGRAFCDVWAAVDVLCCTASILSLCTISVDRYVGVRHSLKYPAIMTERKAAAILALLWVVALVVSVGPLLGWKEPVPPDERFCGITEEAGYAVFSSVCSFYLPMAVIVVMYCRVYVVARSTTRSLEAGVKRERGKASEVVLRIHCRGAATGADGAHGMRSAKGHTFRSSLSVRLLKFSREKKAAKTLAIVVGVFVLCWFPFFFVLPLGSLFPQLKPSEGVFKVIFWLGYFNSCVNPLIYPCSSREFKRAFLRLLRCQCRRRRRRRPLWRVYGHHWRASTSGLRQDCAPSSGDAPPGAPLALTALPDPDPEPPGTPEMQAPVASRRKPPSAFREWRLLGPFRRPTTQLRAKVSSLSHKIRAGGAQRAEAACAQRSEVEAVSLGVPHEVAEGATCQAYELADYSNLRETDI

[2] = molecular target: T2, Vasoactive intestinal polypeptide receptor 1 (Homo sapiens, UniProt P32241); format: cell membranes, Membrane; details: ht-29; note: in other assays of this panel Not Active means under 50% inhibition at 10 µM
T2 sequence (P32241 whole entry): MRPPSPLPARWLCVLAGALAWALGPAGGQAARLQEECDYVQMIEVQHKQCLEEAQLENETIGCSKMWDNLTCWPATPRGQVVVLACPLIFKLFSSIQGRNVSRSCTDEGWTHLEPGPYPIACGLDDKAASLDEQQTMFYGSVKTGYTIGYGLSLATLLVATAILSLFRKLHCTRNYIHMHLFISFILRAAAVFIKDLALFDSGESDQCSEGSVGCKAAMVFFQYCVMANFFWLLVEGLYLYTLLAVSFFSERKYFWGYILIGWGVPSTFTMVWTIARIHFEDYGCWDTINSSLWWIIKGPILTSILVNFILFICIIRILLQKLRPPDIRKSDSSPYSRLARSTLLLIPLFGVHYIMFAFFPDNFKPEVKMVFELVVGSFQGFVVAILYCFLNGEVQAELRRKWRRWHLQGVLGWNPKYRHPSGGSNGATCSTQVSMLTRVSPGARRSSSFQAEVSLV

[3] = DRUGMATRIX: GABAA, Chloride Channel, TBOB radioligand binding (ligand: [3H] TBOB); format: cell membranes, Rattus norvegicus, Wistar, Cerebral cortex, Membrane; details: Not Active = under 50% inhibition at 10 µM
[4] = molecular target: T3, 3-hydroxy-3-methylglutaryl-coenzyme A reductase (Homo sapiens, UniProt P04035); parameters: species or system Escherichia coli;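 note: enzyme inhibition assay of HMG-CoA reductase using radiolabeled [14C]HMG-CoA as substrate; in other assays of this panel Not Active means under 50% inhibition at 10 µM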
T3 sequence (P04035 whole entry): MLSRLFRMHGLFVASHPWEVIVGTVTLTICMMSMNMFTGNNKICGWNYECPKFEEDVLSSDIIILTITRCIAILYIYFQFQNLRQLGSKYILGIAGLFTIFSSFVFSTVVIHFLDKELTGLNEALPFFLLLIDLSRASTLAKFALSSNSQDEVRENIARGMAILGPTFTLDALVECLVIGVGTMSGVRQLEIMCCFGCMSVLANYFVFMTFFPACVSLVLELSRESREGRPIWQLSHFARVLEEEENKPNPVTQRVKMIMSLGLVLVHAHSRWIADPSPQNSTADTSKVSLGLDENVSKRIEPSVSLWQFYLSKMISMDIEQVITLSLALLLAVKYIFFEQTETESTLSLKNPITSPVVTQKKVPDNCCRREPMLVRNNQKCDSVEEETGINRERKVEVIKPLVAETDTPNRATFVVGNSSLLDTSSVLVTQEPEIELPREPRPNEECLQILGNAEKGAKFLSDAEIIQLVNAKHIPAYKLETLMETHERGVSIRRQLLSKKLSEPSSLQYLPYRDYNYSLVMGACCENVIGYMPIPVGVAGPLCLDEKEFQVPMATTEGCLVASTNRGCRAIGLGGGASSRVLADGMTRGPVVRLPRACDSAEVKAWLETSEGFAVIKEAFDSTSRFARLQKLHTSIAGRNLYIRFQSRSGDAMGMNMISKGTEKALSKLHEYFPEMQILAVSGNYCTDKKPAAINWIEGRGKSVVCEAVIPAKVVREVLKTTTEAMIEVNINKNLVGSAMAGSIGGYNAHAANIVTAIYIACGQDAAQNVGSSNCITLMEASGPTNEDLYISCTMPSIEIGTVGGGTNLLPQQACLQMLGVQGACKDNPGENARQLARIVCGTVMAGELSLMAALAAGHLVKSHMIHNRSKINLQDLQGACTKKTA

[5] = molecular target: T4, Glucocorticoid receptor (Homo sapiens, UniProt P04150); details: hela s3; note: in other assays of this panel Not Active means under 50% inhibition at 10 µM
T4 sequence (P04150 whole entry): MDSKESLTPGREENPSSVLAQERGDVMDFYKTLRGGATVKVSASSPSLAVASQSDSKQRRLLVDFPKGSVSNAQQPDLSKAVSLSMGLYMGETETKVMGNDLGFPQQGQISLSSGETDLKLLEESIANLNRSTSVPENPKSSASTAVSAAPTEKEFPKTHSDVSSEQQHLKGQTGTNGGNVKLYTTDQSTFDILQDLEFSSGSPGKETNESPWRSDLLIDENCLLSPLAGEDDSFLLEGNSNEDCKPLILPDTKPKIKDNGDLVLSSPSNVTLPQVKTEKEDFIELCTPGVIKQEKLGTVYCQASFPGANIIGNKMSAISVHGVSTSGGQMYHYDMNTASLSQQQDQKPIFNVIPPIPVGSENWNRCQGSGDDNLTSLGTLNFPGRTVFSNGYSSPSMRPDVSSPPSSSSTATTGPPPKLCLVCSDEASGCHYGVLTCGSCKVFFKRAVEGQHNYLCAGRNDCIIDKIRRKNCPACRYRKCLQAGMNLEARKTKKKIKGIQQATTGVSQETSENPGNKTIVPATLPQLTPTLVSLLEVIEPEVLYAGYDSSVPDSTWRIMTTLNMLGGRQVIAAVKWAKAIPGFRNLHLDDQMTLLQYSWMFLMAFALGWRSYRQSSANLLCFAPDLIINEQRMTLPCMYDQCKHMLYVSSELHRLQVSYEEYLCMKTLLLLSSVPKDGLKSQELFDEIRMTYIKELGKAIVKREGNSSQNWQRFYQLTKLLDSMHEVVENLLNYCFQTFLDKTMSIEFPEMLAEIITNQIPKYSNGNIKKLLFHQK

Nc1nc2c(c(=O)[nH]1)N(C=O)C(CNc1ccc(C(=O)N[C@@H](CCC(=O)O)C(=O)O)cc1)CN2 (stereo partly specified) [LEUCOVORIN]
Not Active: IC50 [1] | IC50 [2] | IC50 [3] | Ki [3] | IC50 [4] | IC50 [5]

COc1cc(C(=O)NS(=O)(=O)c2ccccc2C)ccc1Cc1cn(C)c2ccc(NC(=O)OC3CCCC3)cc12 [ZAFIRLUKAST]
Not Active: IC50 [1] | IC50 [2] | IC50 [3] | Ki [3] | IC50 [4] | IC50 [5]

Nc1ccc(S(=O)(=O)Nc2nccs2)cc1 [SULFATHIAZOLE]
Not Active: IC50 [1] | IC50 [2] | IC50 [3] | Ki [3] | IC50 [4] | IC50 [5]

C=C(C)[C@H]1Cc2c(ccc3c2O[C@@H]2COc4cc(OC)c(OC)cc4[C@@H]2C3=O)O1 [ROTENONE]
Not Active: IC50 [1] | IC50 [2] | IC50 [3] | Ki [3] | IC50 [4] | IC50 [5]

C#CCN(C)[C@H](C)Cc1ccccc1 [SELEGILINE]
Not Active: IC50 [1] | IC50 [2] | IC50 [3] | Ki [3] | IC50 [4] | IC50 [5]

COc1cc(N)nc2[nH]c(-c3ccc(F)cc3)c(-c3ccncc3)c12
Not Active: IC50 [1] | IC50 [2] | IC50 [3] | Ki [3] | IC50 [4] | IC50 [5]

THIMEROSAL
Not Active: IC50 [1] | Ki [1] | IC50 [2] | Ki [2] | IC50 [3] | Ki [3] | IC50 [4] | Ki [4] | IC50 [5] | Ki [5]

CNS(=O)(=O)Cc1ccc2[nH]cc(CCN(C)C)c2c1
Not Active: IC50 [1] | IC50 [2] | IC50 [3] | Ki [3] | IC50 [4] | IC50 [5]

C[C@@H]1C[C@H]2[C@@H]3CCC4=CC(=O)C=C[C@]4(C)C3=CC[C@]2(C)[C@H]1C(=O)CN1CCN(c2cc(N3CCCC3)nc(N3CCCC3)n2)CC1 [TIRILAZAD]
Not Active: IC50 [1] | IC50 [2] | IC50 [3] | Ki [3] | IC50 [4] | IC50 [5]

CN[C@@H]1[C@H](O)[C@H](NC)[C@H]2O[C@@]3(O)C(=O)C[C@@H](C)O[C@H]3O[C@@H]2[C@H]1O [SPECTINOMYCIN]
Not Active: IC50 [1] | IC50 [2] | IC50 [3] | Ki [3] | IC50 [4] | IC50 [5]

O=P(O)(O)C(O)(Cc1cccnc1)P(=O)(O)O [RISEDRONIC ACID]
Not Active: IC50 [1] | IC50 [2] | IC50 [3] | Ki [3] | IC50 [4] | IC50 [5]

COc1ccc(CN2CCNCC2)c(OC)c1OC [TRIMETAZIDINE]
Not Active: IC50 [1] | IC50 [2] | IC50 [3] | Ki [3] | IC50 [4] | IC50 [5]
